Data reported in patent US4694011A, “Novel 7-hydroxy-indoles” (Roussel Uclaf, priority 1985, dated 1987).

Tests used:
[1] = tested on: average arterial pressure; test: Test for direct vasodilatory activity of vascular relaxing postsynaptic activity (demedullated rats, angiotensine II); assay type: in vivo, rat (Sprague-Dawley)
Description: D. Test for Direct Vasodilatary Activity of Vascular Relaxing Postsynaptic-activity
Rats of the Sprague-Dawley strain weighing 320-350 g were anesthetized with pentobarbital (50 mg/kg by intraperitoneal injection) and after the positioning of a carotidien catheter to measure the arterial pressure and a jugular catheter for the injection of the test compounds and possible antagonists, the animals were demedullated with a steel rod. This rod was introduced by the right orbital orifice and descended the length of the spinal cord. The animals were then immediately placed under assisted respiration and a few minutes after the arterial pressure was stabilized, the animals received an intravenous perfusion of angiotensine II of […] to increase their average pressure by about 100 mm of mercury. After a plateau was reached, the test substance was injected intravenously every 2 minutes and in cumulated doses. The percentage drop in the average arterial pressure obtained enabled a dose-response curve to be traced reflecting the vasodilatary activity of the compound studied. The preliminary treatment of the animals with different antagonists enabled the mechanism of action of the compound to be determined. The products were tested between 0.001 and 1 mg/kg and Domperidone and propanolol were used as antagonists.

[2] = tested on: force of cardiac contraction; test: Positive inotropic activity; assay type: in vivo, rat (Sprague-Dawley); details: 10 to 100 mg/kg
Description: E. Positive inotropic activity
Rats of Sprague-Dawley strain weighing 300 to 350 g were anesthetized with pentobarbital (50 mg/kg by intraperitoneal injection) and a catheter was placed in the left ventricle to measure the cardiac intraventricular pressure and the dP/dt VG (or rate of variation of the intraventricular pressure). A second arterial catheter placed in the femoral artery enabled the systemic arterial pressure and the cardiac frequency to be registered. The test products and the possible antagonists were injected by a catheter placed in a jugular vein. This model enabled the effect of various substances on the force of cardiac contraction to be evaluated in vivo as a function of the dose and the time.

[3] = tested on: mice; test: Acute toxicity; assay type: in vivo; details: oral administration
Description: The lethal doses LD50 of the different compounds tested were evaluated after oral administration to mice and LD0 is the maximum dose not causing any mortality in 8 days.

[4] = tested on: dopaminergic agonist action at the central level; test: Stereotype behavior; assay type: in vivo, rat; details: male rats, intraperitoneal, 50 mg/kg
Description: The tests were carried out on groups of 5 male rats weighing 150 to 180 g and each animal was placed individually in a barred cage (29×25×17 cm) containing a few wood shavings. The test product was administered intraperitoneally and the behavior of the animals was noted every half-hour for 5 hours with the rating of Halliwell et al [Brit. J. Pharmacol. 1964, Vol. 23, 330-350]. The animal was asleep (0), it was awake but immobile (1), it turned in the cage (2), it sniffed the cover (3), it licks the walls (4), it touched the wood shavings or the bars of the cage with its teeth (5), it bit the shavings or the bars of the cage (6).

[5] = tested on: dopaminergic stimulating activity at the central level; test: Rotation behavior after unilateral lesion of the nigra-striated bundle by 6-hydroxydopamine; assay type: in vivo, rat; details: male rats, intraperitoneal, 5 mg/kg
Description: A. Rotation behavior after unilateral lesion of the nigra-striated bundle by 6-hydroxydopamine
Male rats weighing about 220 g were injured in the nigra-striated dopaminergic bundle by Ungerstedt's method [Acta physiol. Scand. 1971, Vol. 82 suppl. p. 367-69 93] modified by unilateral injection of 9.2 μg of 6-hydroxydopamine hydrochloride in solution in 4 μl of physiological solution containing 0.5 mg/ml of ascorbic acid. The test products were administered intraperitoneally and the animals treated, on average 6, were placed individually in a rotometer which enabled the counting of the number of rotations carried out by each animal in the opposite direction to the injured side.

[6] = tested on: pressure responses to the electrical stimulation; test: Presynaptic activity at the vascular level; assay type: in vivo, rat (Sprague-Dawley); details: demedullated Sprague-Dawley rats
Description: F. Presynaptic activity at the vascular level
Rats of Sprague-Dawley strain weighing 320-350 g were anesthetized with pentobarbital (50 mg/kg by intraperitoneal injection) and after insertion of a carotidien catheter to measure the arterial pressure and a jugular catheter for the injection of the test compounds, the animals were demedullated with a stainless steel rod introduced by the right orbitary orifice. This rod was insulated along its length with the exception of the last five centimeters. As soon as the medulla was destroyed, the animals were placed under assisted respiration. After a period of rest of about 20 minutes, the animals were submitted to electrical stimulations applied between the demedullation rod and a neutral electrode placed under the skin in the thigh region with impulses of 2 msec., frequency of 10 Hz and amplitude of about 20 V for 30 sec. for 5 minutes each. […] The addition of appropriate blockers and the combination of this technique with the modification of dose-response curves to vasoconstricting agents such as noradrenaline enabled the pharmacological profile of the test compound to be determined.

[7] = tested on: arterial pressure; test: Hypotensive activity (arterial pressure, anesthetized rats); assay type: in vivo, rat (WISTAR); details: male WISTAR rats anesthetized with nembutal, intravenous, 1 mg/kg
Description: The hypotensive activity was studied on male rats of the WISTAR strain weighing about 300 g and anesthetized with nembutal (50 mg/kg by intraperitoneal route). The product tested was administered intravenously into the jugular vein and the carotidien arterial pressure was measured before and after administration of the product tested.

[8] = anesthetized Sprague-Dawley rats, jugular vein

SMILES | origin of the vasodilator effect (mechanism) ([1]; Domperidone and propanolol used as antagonists) | minimal effective dose ([1]; Rattus norvegicus, demedullated Sprague-Dawley rats, angiotensine II perfusion, intravenous cumulated doses, tested between 0.001 and 1 mg/kg, read-out: dose from which a dose dependent vasodilator effect occurs) | positive inotropic effect (conclusion) [2] | blockade by propanolol of the increase of dP/dt and maximal ventricular pressure ([2]; with propanolol) | dP/dt (rate of variation of the intraventricular pressure) [2, 8] | maximal ventricular pressure [2, 8] | LD0 (maximum dose not causing any mortality in 8 days) [3] | central dopaminergic agonist action (conclusion from stereotype test) [4] | stereotype movements ([4]; noted every half-hour for 5 hours) | central dopaminergic stimulating activity (conclusion from rotation test) [5] | rotations in the opposite direction to the injured side ([5]; at least ninety minutes) | site of action linked to the reduction of the responses [6] | pressure responses to the electrical stimulation ([6]; intravenous) | blockade by sulpiride of the reduction of the responses ([6]; with sulpiride) | effect on carotidien arterial pressure [7]
Br.O=C1Cc2c(C3CCCNC3)ccc(O)c2N1 (stereo not shown) [Example 3, 1,3-dihydro-7-hydroxy-4-(3-piperidinyl)-2H-indol-2-one hydrobromide] | of dopaminergic and α-adrenergic origin | ≥ 0.001 mg/kg | possessed positive inotropic properties | not otherwise blocked by propanolol | increase of the dP/dt | increase of the dP/dt and of the maximal ventricular pressure | 400 mg/kg | substantially deprived of dopaminergic agonist action at the central level | practically no stereotype movements | substantially deprived of dopaminergic stimulating activity at the central level | practically no rotations | essentially post-synaptic activity | reduction of the responses | not blocked by sulpiride | slight effect on the arterial pressure
Br.CCCN1CCCC(c2ccc(O)c3c2CC(=O)N3)C1 (stereo not shown) [Example 4, 1,3-dihydro-7-hydroxy-4-(1-propyl-3-piperidinyl)-2H-indol-2-one hydrobromide] |  |  |  |  |  |  | 400 mg/kg |  |  |  |  |  |  |  | 
